Tested on: MV-4-11 cells
Test: Gene expression microarray analysis (Affymetrix PrimeView) and GSEA
Assay type: cell-based, human
Design: RFU PODN (11730768_x_at) / Fold change /veh PODN (11730768_x_at) / RFU LINC00158 (11744669_a_at) / Fold change /veh LINC00158 (11744669_a_at) / RFU DUSP10 (11751237_a_at) / Fold change /veh DUSP10 (11751237_a_at) / RFU ID3 (11757404_x_at) / Fold change /veh ID3 (11757404_x_at) / RFU PLEKHG5 (11737974_s_at) / Fold change /veh PLEKHG5 (11737974_s_at) / RFU LRRC4B (11730491_at) / Fold change /veh LRRC4B (11730491_at) / RFU GIMAP4 (11747438_a_at) / Fold change /veh GIMAP4 (11747438_a_at) / RFU KRT8 (11758183_x_at) / Fold change /veh KRT8 (11758183_x_at) / RFU CNN1 (11734310_a_at) / Fold change /veh CNN1 (11734310_a_at) / RFU VPS37D (11726825_at) / Fold change /veh VPS37D (11726825_at) / RFU C10orf10 (11716522_x_at) / Fold change /veh C10orf10 (11716522_x_at) / RFU KIR2DL2 /// KIR2DL4 /// KIR2DL5A /// KIR2DL5B /// KIR2DS1 /// KIR2DS2 /// KIR2DS3 /// KIR2DS4 /// KIR3DL3 /// KIR3DL3 /// KIR3DS1 (11738374_at) / Fold change /veh KIR2DL2 /// KIR2DL4 /// KIR2DL5A /// KIR2DL5B /// KIR2DS1 /// KIR2DS2 /// KIR2DS3 /// KIR2DS4 /// KIR3DL3 /// KIR3DL3 /// KIR3DS1 (11738374_at) / RFU C1QL1 (11718748_at) / Fold change /veh C1QL1 (11718748_at) / RFU TMPRSS4 (11747572_a_at) / Fold change /veh TMPRSS4 (11747572_a_at) / RFU HAMP (11756126_x_at) / Fold change /veh HAMP (11756126_x_at) / RFU RNFT2 (11725882_a_at) / Fold change /veh RNFT2 (11725882_a_at) / RFU NR4A2 (11747474_a_at) / Fold change /veh NR4A2 (11747474_a_at) / RFU ABCC12 (11746883_a_at) / Fold change /veh ABCC12 (11746883_a_at) / RFU TMEM136 (11760407_x_at) / Fold change /veh TMEM136 (11760407_x_at) / RFU CLDN22 /// WWC2 (11732394_at) / Fold change /veh CLDN22 /// WWC2 (11732394_at) / RFU HLA-DPB1 (11760878_x_at) / Fold change /veh HLA-DPB1 (11760878_x_at) / RFU SPINT1 (11716480_a_at) / Fold change /veh SPINT1 (11716480_a_at) / RFU GAP43 (11754022_s_at) / Fold change /veh GAP43 (11754022_s_at) / RFU A4GNT (11735810_at) / Fold change /veh A4GNT (11735810_at) / RFU PRB3 (11715151_x_at) / Fold change /veh PRB3 (11715151_x_at) / RFU TUBB4B (11761932_at) / Fold change /veh TUBB4B (11761932_at) / RFU CAPN14 (11732068_a_at) / Fold change /veh CAPN14 (11732068_a_at) / RFU TMCC2 (11721928_a_at) / Fold change /veh TMCC2 (11721928_a_at) / RFU IRGQ (11745062_a_at) / Fold change /veh IRGQ (11745062_a_at) / RFU FAM174B (11720279_a_at) / Fold change /veh FAM174B (11720279_a_at) / RFU TMPRSS4 (11748680_a_at) / Fold change /veh TMPRSS4 (11748680_a_at) / RFU FAM212B (11763350_a_at) / Fold change /veh FAM212B (11763350_a_at) / RFU PLEKHG5 (11743358_a_at) / Fold change /veh PLEKHG5 (11743358_a_at) / RFU ZSCAN30 (11745921_a_at) / Fold change /veh ZSCAN30 (11745921_a_at) / RFU CMKLR1 (11741424_a_at) / Fold change /veh CMKLR1 (11741424_a_at) / RFU LOC101060620 /// MAPK8IP1 (11723275_at) / Fold change /veh LOC101060620 /// MAPK8IP1 (11723275_at) / RFU SPTSSB (11747773_x_at) / Fold change /veh SPTSSB (11747773_x_at) / RFU PRSS12 (11739890_at) / Fold change /veh PRSS12 (11739890_at) / RFU BIN1 (11741810_x_at) / Fold change /veh BIN1 (11741810_x_at) / RFU WNT11 (11732464_a_at) / Fold change /veh WNT11 (11732464_a_at) / RFU C10orf10 (11716521_a_at) / Fold change /veh C10orf10 (11716521_a_at) / RFU C5orf56 (11738089_at) / Fold change /veh C5orf56 (11738089_at) / RFU CYB561 (11721691_x_at) / Fold change /veh CYB561 (11721691_x_at) / RFU ANKRD19P (11752326_a_at) / Fold change /veh ANKRD19P (11752326_a_at) / RFU OR2T12 /// OR2T33 /// OR2T8 (11738714_s_at) / Fold change /veh OR2T12 /// OR2T33 /// OR2T8 (11738714_s_at) / RFU VCAN (11748164_a_at) / Fold change /veh VCAN (11748164_a_at) / RFU JSRP1 (11732532_at) / Fold change /veh JSRP1 (11732532_at) / RFU KRTAP10-11 (11738290_x_at) / Fold change /veh KRTAP10-11 (11738290_x_at) / RFU MYO3A (11730013_a_at) / Fold change /veh MYO3A (11730013_a_at) / RFU EBF3 (11725865_a_at) / Fold change /veh EBF3 (11725865_a_at) / RFU CAMK2N1 (11719241_x_at) / Fold change /veh CAMK2N1 (11719241_x_at) / RFU C5orf56 (11738088_a_at) / Fold change /veh C5orf56 (11738088_a_at) / RFU OLFML3 (11715873_a_at) / Fold change /veh OLFML3 (11715873_a_at) / RFU LOC100653217 /// NTM (11731650_a_at) / Fold change /veh LOC100653217 /// NTM (11731650_a_at) / RFU MAPK11 (11762145_a_at) / Fold change /veh MAPK11 (11762145_a_at) / RFU FIZ1 (11724087_x_at) / Fold change /veh FIZ1 (11724087_x_at) / RFU OASL (11726364_x_at) / Fold change /veh OASL (11726364_x_at) / RFU SOX15 (11748057_x_at) / Fold change /veh SOX15 (11748057_x_at) / RFU CD79A (11719716_a_at) / Fold change /veh CD79A (11719716_a_at) / RFU HIST1H1D (11736915_at) / Fold change /veh HIST1H1D (11736915_at) / RFU CASKIN2 (11723855_a_at) / Fold change /veh CASKIN2 (11723855_a_at) / RFU LOC730098 (11760151_x_at) / Fold change /veh LOC730098 (11760151_x_at) / RFU OR4N2 (11742367_at) / Fold change /veh OR4N2 (11742367_at) / RFU PRRT2 (11749266_a_at) / Fold change /veh PRRT2 (11749266_a_at) / RFU SNX32 (11753110_a_at) / Fold change /veh SNX32 (11753110_a_at) / RFU CDHR5 (11726645_a_at) / Fold change /veh CDHR5 (11726645_a_at) / RFU RCAN1 (11760418_a_at) / Fold change /veh RCAN1 (11760418_a_at) / RFU FAM167A (11723789_a_at) / Fold change /veh FAM167A (11723789_a_at) / RFU FAM26E (11764081_at) / Fold change /veh FAM26E (11764081_at) / RFU ISYNA1 (11749810_s_at) / Fold change /veh ISYNA1 (11749810_s_at) / RFU ACY1 (11761880_at) / Fold change /veh ACY1 (11761880_at) / RFU 11764098_at / Fold change /veh 11764098_at / RFU SAMD14 (11745864_x_at) / Fold change /veh SAMD14 (11745864_x_at) / RFU NPB (11741838_a_at) / Fold change /veh NPB (11741838_a_at) / RFU TMPRSS6 (11731388_a_at) / Fold change /veh TMPRSS6 (11731388_a_at) / RFU KRTAP10-2 (11738614_at) / Fold change /veh KRTAP10-2 (11738614_at) / RFU ARHGAP8 /// PRR5-ARHGAP8 (11727945_x_at) / Fold change /veh ARHGAP8 /// PRR5-ARHGAP8 (11727945_x_at) / RFU KRTAP5-7 /// NADSYN1 (11734609_at) / Fold change /veh KRTAP5-7 /// NADSYN1 (11734609_at) / RFU RASL12 (11751679_a_at) / Fold change /veh RASL12 (11751679_a_at) / RFU CDKN2B (11736163_a_at) / Fold change /veh CDKN2B (11736163_a_at) / RFU PRF1 (11729649_at) / Fold change /veh PRF1 (11729649_at) / RFU, ZNF638 /// ZNF638-IT1 / Fold change vs veh, ZNF638 /// ZNF638-IT1 / RFU, PANK3 / Fold change vs veh, PANK3 / RFU, SH3YL1 / Fold change vs veh, SH3YL1 / RFU, ZEB2 / Fold change vs veh, ZEB2 / RFU, NRIP1 / Fold change vs veh, NRIP1 / RFU, PTTG1IP / Fold change vs veh, PTTG1IP / RFU, CAPN2 / Fold change vs veh, CAPN2 / RFU, MED14 / Fold change vs veh, MED14 / RFU, SNORA58 / Fold change vs veh, SNORA58 / RFU, C1orf63 / Fold change vs veh, C1orf63 / RFU, LRRFIP1 / Fold change vs veh, LRRFIP1 / RFU, NDUFAF7 / Fold change vs veh, NDUFAF7 / RFU, SLC12A2 / Fold change vs veh, SLC12A2 / RFU, IBTK / Fold change vs veh, IBTK / RFU, ESF1 / Fold change vs veh, ESF1 / Fold change vs veh, TMEM50B / RFU, TAOK1 / Fold change vs veh, TAOK1 / RFU, ACBD3 / Fold change vs veh, ACBD3 / RFU, TMA16 / Fold change vs veh, TMA16 / RFU, RWDD3 / Fold change vs veh, RWDD3 / RFU, BCAT1 / Fold change vs veh, BCAT1 / RFU, EDEM3 / Fold change vs veh, EDEM3 / RFU, TMEM33 / Fold change vs veh, TMEM33 / RFU, WDR75 / Fold change vs veh, WDR75 / RFU, AHCTF1 / Fold change vs veh, AHCTF1 / RFU, TFRC / Fold change vs veh, TFRC / RFU, ZDHHC17 / Fold change vs veh, ZDHHC17 / RFU, NOM1 / Fold change vs veh, NOM1 / RFU, ARL8B / Fold change vs veh, ARL8B / RFU, ZBTB11 / Fold change vs veh, ZBTB11 / RFU, TAMM41 / Fold change vs veh, TAMM41 / RFU, KIAA1704 /// LOC100996395 / Fold change vs veh, KIAA1704 /// LOC100996395 / RFU, ING1 / Fold change vs veh, ING1 / RFU, TRMT61B / Fold change vs veh, TRMT61B / RFU, FUBP3 / Fold change vs veh, FUBP3 / RFU, TP53 / Fold change vs veh, TP53 / RFU, TNKS2 / Fold change vs veh, TNKS2 / RFU, ZFP14 / Fold change vs veh, ZFP14 / RFU, ACTR2 / Fold change vs veh, ACTR2 / RFU, PPP3R1 / Fold change vs veh, PPP3R1 / RFU, PIK3R1 / Fold change vs veh, PIK3R1 / RFU, HNRNPA1 / Fold change vs veh, HNRNPA1 / RFU, RNF170 / Fold change vs veh, RNF170 / RFU, ZNF28 / Fold change vs veh, ZNF28 / RFU, RNGTT / Fold change vs veh, RNGTT / RFU, OGT / Fold change vs veh, OGT / RFU, BRD1 / Fold change vs veh, BRD1 / RFU, MARS / Fold change vs veh, MARS / RFU, ZNF655 / Fold change vs veh, ZNF655 / RFU, FAHD1 / Fold change vs veh, FAHD1 / RFU, BDP1 / Fold change vs veh, BDP1 / RFU, LRRCC1 / Fold change vs veh, LRRCC1 / RFU, ARID1A / Fold change vs veh, ARID1A / RFU, ZNF146 / Fold change vs veh, ZNF146 / RFU, ZNF330 / Fold change vs veh, ZNF330 / RFU, GPN3 / Fold change vs veh, GPN3 / RFU, C9orf123 / Fold change vs veh, C9orf123 / RFU, N4BP2L2 / Fold change vs veh, N4BP2L2 / RFU, ARFIP1 / Fold change vs veh, ARFIP1 / RFU, FAM179B / Fold change vs veh, FAM179B / RFU, BCL10 / Fold change vs veh, BCL10 / RFU, UHRF1BP1L / Fold change vs veh, UHRF1BP1L / RFU, BET1 / Fold change vs veh, BET1 / RFU, CNOT2 / Fold change vs veh, CNOT2 / RFU, ZNF268 / Fold change vs veh, ZNF268 / Fold change vs veh, ZNF507 / RFU, DGCR2 / Fold change vs veh, DGCR2 / RFU, WDSUB1 / Fold change vs veh, WDSUB1 / Fold change vs veh, HSP90B1 /// MIR3652 / RFU, ADSS / Fold change vs veh, ADSS / RFU, GK / Fold change vs veh, GK / RFU, ZNF148 / Fold change vs veh, ZNF148 / RFU, TAF9 / Fold change vs veh, TAF9 / RFU, SLC1A5 / Fold change vs veh, SLC1A5 / RFU, SLMO2 / Fold change vs veh, SLMO2 / RFU, ABCC4 / Fold change vs veh, ABCC4 / RFU, LOC101060439 /// RAP1B / Fold change vs veh, LOC101060439 /// RAP1B / RFU, RFX7 / Fold change vs veh, RFX7 / RFU, GTPBP10 / Fold change vs veh, GTPBP10 / RFU, CNEP1R1 / Fold change vs veh, CNEP1R1 / RFU, BIVM-ERCC5 /// ERCC5 / Fold change vs veh, BIVM-ERCC5 /// ERCC5 / RFU, ILF3 / Fold change vs veh, ILF3 / RFU 11762660_at / Fold change /veh 11762660_at / RFU VCAN (11757783_s_at) / Fold change /veh VCAN (11757783_s_at) / RFU DDX43 (11728927_at) / Fold change /veh DDX43 (11728927_at) / RFU KRT8 (11758188_x_at) / Fold change /veh KRT8 (11758188_x_at) / RFU NKD1 (11759106_at) / Fold change /veh NKD1 (11759106_at) / RFU SRD5A1 (11742802_a_at) / Fold change /veh SRD5A1 (11742802_a_at) / RFU TPSAB1 /// TPSB2 (11721975_s_at) / Fold change /veh TPSAB1 /// TPSB2 (11721975_s_at) / RFU GSTM3 (11746129_a_at) / Fold change /veh GSTM3 (11746129_a_at) / RFU IL23R (11737362_x_at) / Fold change /veh IL23R (11737362_x_at) / RFU TMEM51 (11727254_a_at) / Fold change /veh TMEM51 (11727254_a_at) / RFU PIWIL2 (11732686_x_at) / Fold change /veh PIWIL2 (11732686_x_at) / RFU ORM1 (11744905_x_at) / Fold change /veh ORM1 (11744905_x_at) / RFU CCDC152 (11743942_at) / Fold change /veh CCDC152 (11743942_at) / RFU ECM1 (11717891_a_at) / Fold change /veh ECM1 (11717891_a_at) / RFU IL23R (11748794_a_at) / Fold change /veh IL23R (11748794_a_at) / RFU TNFAIP8L3 (11732012_x_at) / Fold change /veh TNFAIP8L3 (11732012_x_at) / RFU MBOAT4 (11741988_at) / Fold change /veh MBOAT4 (11741988_at) / RFU 11764193_at / Fold change /veh 11764193_at / RFU TMEM53 (11763286_at) / Fold change /veh TMEM53 (11763286_at) / RFU MAGEB2 (11727129_at) / Fold change /veh MAGEB2 (11727129_at) / RFU TMEM200A (11744735_a_at) / Fold change /veh TMEM200A (11744735_a_at) / RFU CCDC152 (11751479_a_at) / Fold change /veh CCDC152 (11751479_a_at) / RFU FAM211A (11726209_a_at) / Fold change /veh FAM211A (11726209_a_at) / RFU RGS16 (11746705_a_at) / Fold change /veh RGS16 (11746705_a_at) / RFU VCAN (11755009_s_at) / Fold change /veh VCAN (11755009_s_at) / RFU RHOB (11743442_s_at) / Fold change /veh RHOB (11743442_s_at) / RFU RGS16 (11720943_a_at) / Fold change /veh RGS16 (11720943_a_at) / RFU RGS16 (11720944_at) / Fold change /veh RGS16 (11720944_at) / RFU, VPS4B / Fold change vs veh, VPS4B / RFU, CREB1 / Fold change vs veh, CREB1 / RFU, DNAJC13 / Fold change vs veh, DNAJC13 / RFU, GNAQ / Fold change vs veh, GNAQ / RFU, CDK5R1 / Fold change vs veh, CDK5R1 / RFU, ZRANB3 / Fold change vs veh, ZRANB3 / RFU, CUL4A / Fold change vs veh, CUL4A / RFU, CCNY / Fold change vs veh, CCNY / RFU, UFL1 / Fold change vs veh, UFL1 / RFU, COG3 / Fold change vs veh, COG3 / RFU, DIAPH2 / Fold change vs veh, DIAPH2 / RFU, SKA2 / Fold change vs veh, SKA2 / RFU, AFF3 / Fold change vs veh, AFF3 / RFU, LMF1 / Fold change vs veh, LMF1 / RFU, IPO11 / Fold change vs veh, IPO11 / RFU, DFFB / Fold change vs veh, DFFB / RFU, FOXP1 / Fold change vs veh, FOXP1 / RFU, CARD8 / Fold change vs veh, CARD8 / RFU, STRN3 / Fold change vs veh, STRN3 / RFU, ADK / Fold change vs veh, ADK / RFU, RASSF2 / Fold change vs veh, RASSF2 / RFU, WIPF1 / Fold change vs veh, WIPF1 / RFU, LARP1B / Fold change vs veh, LARP1B / RFU, RASA1 / Fold change vs veh, RASA1 / RFU, RB1 / Fold change vs veh, RB1 / RFU, PPFIA1 / Fold change vs veh, PPFIA1 / RFU, MAT2A / Fold change vs veh, MAT2A / RFU, CCT5 / Fold change vs veh, CCT5 / RFU, WDR92 / Fold change vs veh, WDR92 / RFU, CUX1 / Fold change vs veh, CUX1 / RFU, TTC7A / Fold change vs veh, TTC7A / RFU, TMEM135 / Fold change vs veh, TMEM135 / RFU, DEPTOR / Fold change vs veh, DEPTOR / RFU, CPM / Fold change vs veh, CPM / RFU, DNAJB6 / Fold change vs veh, DNAJB6 / RFU, CACNA2D3 / Fold change vs veh, CACNA2D3 / RFU, DTX4 / Fold change vs veh, DTX4 / RFU, TFCP2 / Fold change vs veh, TFCP2 / RFU, GMCL1 /// GMCL1P1 / Fold change vs veh, GMCL1 /// GMCL1P1 / RFU, AEBP2 / Fold change vs veh, AEBP2 / RFU, SNHG1 /// SNORD22 /// SNORD25 /// SNORD26 /// SNORD27 /// SNORD28 /// SNORD29 /// SNORD31 / Fold change vs veh, SNHG1 /// SNORD22 /// SNORD25 /// SNORD26 /// SNORD27 /// SNORD28 /// SNORD29 /// SNORD31 / Fold change (Aza/veh), C12orf56 (ProbeSet 11735607_a_at) / Fold change (ACY-1035/veh), C12orf56 (ProbeSet 11735607_a_at) / Fold change (Aza/veh), FGFR1OP (ProbeSet 11751329_s_at) / Fold change (ACY-1035/veh), FGFR1OP (ProbeSet 11751329_s_at) / Fold change (Aza/veh), VPS36 (ProbeSet 11739960_a_at) / Fold change (ACY-1035/veh), VPS36 (ProbeSet 11739960_a_at) / RFU SYPL1 (11715823_x_at) / Fold change /veh SYPL1 (11715823_x_at) / RFU IGFBP7 (11715501_s_at) / Fold change /veh IGFBP7 (11715501_s_at) / RFU REEP3 (11722064_at) / Fold change /veh REEP3 (11722064_at) / RFU IGLL1 (11728026_x_at) / Fold change /veh IGLL1 (11728026_x_at): dose or concentration left out as unconfirmed
Details: ProbeSet 11720270_a_at; LIST B

Nc1ccc(-c2cccs2)cc1NC(=O)c1ccc2c(c1)cc(C1CC1)n2CCN1CCOCC1 [ACY-1035]
Fold change vs veh, IBTK: 0.91

Reference: PMC5218480 (PLoS ONE, 2017)
